Assay results: PubChem BioAssay AID2060910 (Molecular Pharmacology Branch, DTP, NCI, 2025)

System: 242566-281-R-J2-PDC complex spheroid viability
Assay: Anticancer human tumor 242566-281-R-J2-PDC patient-derived pancreatic carcinoma cell line growth inhibition [RAS]
Details: for IC50: curve of first compound; for viability, T/C: stronger effect = lower value
Procedure, shortened: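 Agents were tested in combination matrices in half-log decrements from a top concentration at or near clinical Cmax (10 microM if undetermined). Targets were multi-cell spheroids of tumour lines plus HUVEC and MSC stromal cells.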

[1] = second compound 0.000949 µM, first compound 0.0316 µM
[2] = second compound 0.000949 µM, first compound 0.1 µM
[3] = second compound 0.000949 µM, first compound 0.316 µM
[4] = second compound 0.000949 µM, first compound 1 µM
[5] = second compound 0.003 µM, first compound 0.0316 µM
[6] = second compound 0.003 µM, first compound 0.1 µM
[7] = second compound 0.003 µM, first compound 0.316 µM
[8] = second compound 0.003 µM, first compound 1 µM
[9] = second compound 0.00949 µM, first compound 0.0316 µM
[10] = second compound 0.00949 µM, first compound 0.1 µM
[11] = second compound 0.00949 µM, first compound 0.316 µM
[12] = second compound 0.00949 µM, first compound 1 µM
[13] = second compound 0.03 µM, first compound 0.0316 µM
[14] = second compound 0.03 µM, first compound 0.1 µM
[15] = second compound 0.03 µM, first compound 0.316 µM
[16] = second compound 0.03 µM, first compound 1 µM
[17] = second compound 0.0949 µM, first compound 0.0316 µM
[18] = second compound 0.0949 µM, first compound 0.1 µM
[19] = second compound 0.0949 µM, first compound 0.316 µM
[20] = second compound 0.0949 µM, first compound 1 µM
[21] = second compound 0.3 µM, first compound 0.0316 µM
[22] = second compound 0.3 µM, first compound 0.1 µM
[23] = second compound 0.3 µM, first compound 0.316 µM
[24] = second compound 0.3 µM, first compound 1 µM
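Also: spheroids exposed to compound for 7 days before readout.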
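For viability, T/C in this document: 100% = DMSO vehicle control wells.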

## C=CC(=O)Nc1cc(Nc2nccc(-c3cn(C)c4ccccc34)n2)c(OC)cc1N(C)CCN(C)C + CCn1c(-c2cccnc2C(C)OC)c2c3cc(ccc31)N1CCOC(CC(NC(=O)C(C(C)C)N(C)C(=O)C3(F)CCN(C(=O)C#CC(C)(C)N(C)C)CC3)C(=O)N3CCCC(N3)C(=O)OCC(C)(C)C2)C1
Second compound 0.000949 µM
  IC50: > 1000 nM
Second compound 0.003 µM
  IC50: > 1000 nM
Second compound 0.00949 µM
  IC50: > 1000 nM
Second compound 0.03 µM
  IC50: > 1000 nM
Second compound 0.0949 µM
  IC50: 983 nM
Second compound 0.3 µM
  IC50: 754 nM
Second compound 0.000949 µM, first compound 0.00316 µM
  viability, T/C: 87.8%
Second compound 0.000949 µM, first compound 0.01 µM
  viability, T/C: 107%
[1]
  viability, T/C: 82.5%
[2]
  viability, T/C: 91%
[3]
  viability, T/C: 86.7%
[4]
  viability, T/C: 50.3%
Second compound 0.003 µM, first compound 0.00316 µM
  viability, T/C: 131%
Second compound 0.003 µM, first compound 0.01 µM
  viability, T/C: 95%
[5]
  viability, T/C: 92.2%
[6]
  viability, T/C: 84.3%
[7]
  viability, T/C: 89.8%
[8]
  viability, T/C: 47.2%
Second compound 0.00949 µM, first compound 0.00316 µM
  viability, T/C: 119%
Second compound 0.00949 µM, first compound 0.01 µM
  viability, T/C: 95.8%
[9]
  viability, T/C: 82.8%
[10]
  viability, T/C: 102%
[11]
  viability, T/C: 77.4%
[12]
  viability, T/C: 51.1%
Second compound 0.03 µM, first compound 0.00316 µM
  viability, T/C: 97.6%
Second compound 0.03 µM, first compound 0.01 µM
  viability, T/C: 95.3%
[13]
  viability, T/C: 99.1%
[14]
  viability, T/C: 93.6%
[15]
  viability, T/C: 66%
[16]
  viability, T/C: 52.2%
Second compound 0.0949 µM, first compound 0.00316 µM
  viability, T/C: 98.5%
Second compound 0.0949 µM, first compound 0.01 µM
  viability, T/C: 98.7%
[17]
  viability, T/C: 99.2%
[18]
  viability, T/C: 83.5%
[19]
  viability, T/C: 61.3%
[20]
  viability, T/C: 49.5%
Second compound 0.3 µM, first compound 0.00316 µM
  viability, T/C: 94.9%
Second compound 0.3 µM, first compound 0.01 µM
  viability, T/C: 86.9%
[21]
  viability, T/C: 78%
[22]
  viability, T/C: 70.4%
[23]
  viability, T/C: 56.5%
[24]
  viability, T/C: 47.8%

## CC(=O)OC12COC1CC(O)C1(C)C(=O)C(O)C3=C(C)C(OC(=O)C(O)C(NC(=O)OC(C)(C)C)c4ccccc4)CC(O)(C(OC(=O)c4ccccc4)C21)C3(C)C (centres undefined) + CCn1c(-c2cccnc2C(C)OC)c2c3cc(ccc31)N1CCOC(CC(NC(=O)C(C(C)C)N(C)C(=O)C3(F)CCN(C(=O)C#CC(C)(C)N(C)C)CC3)C(=O)N3CCCC(N3)C(=O)OCC(C)(C)C2)C1
Second compound 0.000949 µM
  IC50: < 31.6 nM
Second compound 0.003 µM
  IC50: < 31.6 nM
Second compound 0.00949 µM
  IC50: < 31.6 nM
Second compound 0.03 µM
  IC50: < 31.6 nM
Second compound 0.0949 µM
  IC50: < 31.6 nM
Second compound 0.3 µM
  IC50: < 31.6 nM
[1]
  viability, T/C: 47.2%
[2]
  viability, T/C: 33.6%
[3]
  viability, T/C: 26.5%
[4]
  viability, T/C: 35.8%
Second compound 0.000949 µM, first compound 3.16 µM
  viability, T/C: 40.1%
Second compound 0.000949 µM, first compound 10 µM
  viability, T/C: 38.8%
[5]
  viability, T/C: 40.7%
[6]
  viability, T/C: 30.1%
[7]
  viability, T/C: 32.4%
[8]
  viability, T/C: 35.7%
Second compound 0.003 µM, first compound 3.16 µM
  viability, T/C: 40.7%
Second compound 0.003 µM, first compound 10 µM
  viability, T/C: 33.9%
[9]
  viability, T/C: 46.7%
[10]
  viability, T/C: 32.3%
[11]
  viability, T/C: 35.8%
[12]
  viability, T/C: 37.7%
Second compound 0.00949 µM, first compound 3.16 µM
  viability, T/C: 35.9%
Second compound 0.00949 µM, first compound 10 µM
  viability, T/C: 34.9%
[13]
  viability, T/C: 43.2%
[14]
  viability, T/C: 33.9%
[15]
  viability, T/C: 31.8%
[16]
  viability, T/C: 34.6%
Second compound 0.03 µM, first compound 3.16 µM
  viability, T/C: 29.3%
Second compound 0.03 µM, first compound 10 µM
  viability, T/C: 43.4%
[17]
  viability, T/C: 36.9%
[18]
  viability, T/C: 34.5%
[19]
  viability, T/C: 31.4%
[20]
  viability, T/C: 33.2%
Second compound 0.0949 µM, first compound 3.16 µM
  viability, T/C: 27.9%
Second compound 0.0949 µM, first compound 10 µM
  viability, T/C: 40.3%
[21]
  viability, T/C: 26.3%
[22]
  viability, T/C: 27%
[23]
  viability, T/C: 26.2%
[24]
  viability, T/C: 20.2%
Second compound 0.3 µM, first compound 3.16 µM
  viability, T/C: 27%
Second compound 0.3 µM, first compound 10 µM
  viability, T/C: 29.4%
